Data published in US7189754B2, “Pyrrolidine ester derivatives with oxytocin modulating activity” (Applied Research Systems ARS Holding NV, priority 2001, dated 2007).
pIC50: −log10 of the molar value.

target: T1, human Oxytocin (hOT) receptor (Homo sapiens, UniProt P30559); assay: In vitro competition binding assay on hOT receptor with scintillation proximity assay ([125I]-OVTA); conditions: HEK293EBNA membranes expressing hOT receptor, 0.2 nM [125I]-OVTA, SPA; read-out: Binding affinity human OT-R IC50
T1 construct: expressed in transfected cells; host or cells: HEK293EBNA
T1 sequence (P30559 1-389): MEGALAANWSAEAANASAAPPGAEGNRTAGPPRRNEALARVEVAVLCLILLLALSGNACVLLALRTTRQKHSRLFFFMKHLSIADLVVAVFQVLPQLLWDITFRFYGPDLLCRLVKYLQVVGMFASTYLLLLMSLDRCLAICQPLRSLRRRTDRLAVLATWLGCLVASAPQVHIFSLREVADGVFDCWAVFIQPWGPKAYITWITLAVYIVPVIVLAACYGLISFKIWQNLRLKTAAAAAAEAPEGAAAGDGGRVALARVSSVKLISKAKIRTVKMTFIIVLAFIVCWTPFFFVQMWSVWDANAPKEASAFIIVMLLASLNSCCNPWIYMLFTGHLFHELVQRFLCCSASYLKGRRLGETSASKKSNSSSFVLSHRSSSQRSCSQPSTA
Procedure: a) In Vitro Competition Binding Assay on hOT Receptor with Scintillation Proximity Assay (see Cook, N. D. et al. Pharmaceutical Manufacturing International 1992; p.49–53)
This assay allows to determine the affinity of the test compounds for the human Oxytocin (hOT) receptor. Membranes from HEK293EBNA (cells expressing the hOT receptor) were suspended in buffer containing 50 mM Tris-HCl, pH 7.4, 5 mM MgCl2 and 0.1% BSA (w/v). The membranes (2–4 μg) were mixed with 0.1 mg SPA bead coated with wheat-germ aglutinin (WGA-PVT-Polyethylene Imine beads from Amersham) and 0.2 nM of the radiolabelled [^125I]-OVTA (OVTA being Ornithin Vasoactive, an analogue of OT for competitive binding experiments). Non-specific binding was determined in the presence of 1 μM Oxytocin. The total assay volume was 100 μl. The plates (Corning® NBS plate) were incubated at room temperature for 30 min and counted on a Mibrobeta® plate scintillation counter. Competitive binding was performed in presence of compounds of formula (I) at the following concentrations: 30 μM, 10 μM, 1 μM, 300 nM, 100 nM, 10 nM, 1 nM, 100 pM, 10 pM. The competitive binding data were analysed using the iterative, nonlinear, curve-fitting program, “Prism” (GraphPad Software, Inc).
The ability of the pyrrolidine derivatives of formula (I) to inhibit the binding of ^125I-OVTA to the OT-receptor was assessed using the above described in vitro biological assay. Representative values for some example compounds are given in Table 1, where the binding affinity of the compounds is expressed by the IC50 (μM) which is the concentration upon which 50% inhibition of OT-R is achieved. From these values, it can be derived that said test compounds according to formula (I) do show a significant binding to the oxytocin receptor.

Row | SMILES | pIC50
1 | CON=C1C[C@@H](C(=O)OC)N(C(=O)c2ccc(-c3ccccc3C)cc2)C1 [Methyl (2S,4EZ)-4-(methoxyimino)-1-[(2′-methyl[1,1′-biphenyl]-4-yl)carbonyl]-2-pyrrolidinecarboxylate] | 7.55
2 | CON=C1C[C@@H](C(=O)OC)N(C(=O)c2ccc(-c3ccccc3)cc2)C1 (mixture of isomers) [Methyl (2S,4EZ)-1-([1,1′-biphenyl]-4-ylcarbonyl)-4-(methoxyimino)-2-pyrrolidinecarboxylate] | 7.35
3 | CON=C1C[C@@H](C(=O)OC)N(C(=O)c2ccc(-c3ccccc3F)cc2)C1 (mixture of isomers) [Methyl (2S,4EZ)-4-(methoxyimino)-1-[(2′-fluoro[1,1′-biphenyl]-4-yl)carbonyl]-2-pyrrolidinecarboxylate] | 7.00
